Assay results reported in patent US20210269440A1 (BETTA PHARMACEUTICALS CO., LTD, priority 2018, published 2021).

Target: T1, PD-1/PD-L1 protein/protein interaction (Homo sapiens, UniProt Q9NZQ7)
T1 construct: Recombinant human PD-L1 protein (19-238) with a His-tag at the C-terminus; purchased AcroBiosystems PD1-H5229 (PD-L1); PD1-H5257 (PD-1)
Test: PD-1/PD-L1 homogenous time-resolved fluorescence (HTRF) binding assay
Experimental: Resolved Fluorescence (HTRF) Binding Assay
The assays were conducted in a standard black 384-well polystyrene plate with a final volume of […]. Inhibitors were first serially diluted in DMSO and then added to the plate wells before the addition of other reaction components. The final concentration of DMSO in the assay was 1%. The assays were carried out at 25° C. in the PBS buffer (pH 7.4) with 0.05% Tween-20 and 0.1% BSA. […] Plates were centrifuged and proteins were preincubated with inhibitors for 40 min. The incubation was followed by the addition of 10 μL of HTRF detection buffer supplemented with Europium cryptate-labeled anti-human IgG (PerkinElmer-AD0212) specific for Fc and anti-His antibody conjugated to SureLight®—Allophycocyanin (APC, PerkinElmer-AD0059H). After centrifugation, the plate was incubated at 25° C. for 60 min. […] Final concentrations in the assay were […] PD1, 10 nM PD-L1, 1 nM europium anti-human IgG and 20 nM anti-His-Allophycocyanin. IC50 determination was performed by fitting the curve of percent control activity versus the log of the inhibitor concentration using the GraphPad Prism 5.0 software.

T1 sequence (Q9NZQ7 19-238): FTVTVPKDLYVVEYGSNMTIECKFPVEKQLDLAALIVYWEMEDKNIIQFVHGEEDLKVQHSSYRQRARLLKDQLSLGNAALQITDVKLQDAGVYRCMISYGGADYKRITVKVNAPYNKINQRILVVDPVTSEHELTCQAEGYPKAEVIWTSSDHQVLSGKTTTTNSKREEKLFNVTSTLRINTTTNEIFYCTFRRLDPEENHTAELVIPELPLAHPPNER

| SMILES | IC50 [µM] |
| --- | --- |
| Cc1c(Nc2nccc3cc(CN4CCCCC4C(=O)O)cnc23)cccc1-c1cccc(OCCCNCC(=O)O)c1C (stereo not drawn) [Compound 28, 1-((8-((3′-(3-((carboxymethyl)amino)propoxy)-2,2′-dimethyl-[1,1′-biphenyl]-3-yl)amino)-1,7-naphthyridin-3-yl)methyl)piperidine-2-carboxylic acid] | < 0.002 |
| Cc1c(Nc2nccc3cc(CN4CCCCC4C(=O)O)cnc23)cccc1-c1cccc(OCCCN2CCCC2C(=O)O)c1C (stereo not drawn) [Compound 29, 1-((8-((3′-(3-(2-carboxypyrrolidin-1-yl)propoxy)-2,2′-dimethyl-[1,1′-biphenyl]-3-yl)amino)-1,7-naphthyridin-3-yl)methyl)piperidine-2-carboxylic acid] | 0.002 to 0.01 |
| Cc1c(Nc2nccc3cc(CN4CCCCC4C(=O)O)cnc23)cccc1-c1cccc(OCCCN2CCC(C(=O)O)CC2)c1C (stereo not drawn) [Compound 30, 1-((8-((3′-(3-(4-carboxypiperidin-1-yl)propoxy)-2,2′-dimethyl-[1,1′-biphenyl]-3-yl)amino)-1,7-naphthyridin-3-yl)methyl)piperidine-2-carboxylic acid] | 0.002 to 0.01 |
| Cc1c(Nc2nccc3cc(CN4CCCCC4C(=O)O)cnc23)cccc1-c1cccc(OCCN2CCOCC2)c1C (stereo not drawn) [Compound 31, 1-((8-((2,2′-dimethyl-3′-(2-morpholinoethoxy)-[1,1′-biphenyl]-3-yl)amino)-1,7-naphthyridin-3-yl)methyl)piperidine-2-carboxylic acid] | 0.01 to 0.15 |
| Cc1c(Nc2nccc3cc(CN4CCCCC4C(=O)O)cnc23)cccc1-c1ccc2ccc(OCCN3CCOCC3)cc2c1 (stereo not drawn) [Compound 32, 1-((8-((2-methyl-3-(7-(2-morpholinoethoxy)naphthalen-2-yl)phenyl)amino)-1,7-naphthyridin-3-yl)methyl)piperidine-2-carboxylic acid] | > 0.15 |
| Cc1c(Nc2nccc3cc(CN4CCCCC4C(=O)O)cnc23)cccc1-c1cccc(OCCCNC2COC2)c1 (stereo not drawn) [Compound 33, 1-((8-((2-methyl-3′-(3-(oxetan-3-ylamino)propoxy)-[1,1′-biphenyl]-3-yl)amino)-1,7-naphthyridin-3-yl)methyl)piperidine-2-carboxylic acid] | < 0.002 |
| Cc1c(Nc2nccc3cc(CN4CCCCC4C(=O)O)cnc23)cccc1-c1cccc2c1ccn2CCCN1CCOCC1 (stereo not drawn) [Compound 34, 1-((8-((2-methyl-3-(1-(3-morpholinopropyl)-1H-indol-4-yl)phenyl)amino)-1,7-naphthyridin-3-yl)methyl)piperidine-2-carboxylic acid] | > 0.15 |
| Cc1c(Nc2nccc3cc(CN4CCCCC4C(=O)O)cnc23)cccc1-c1ccc2cc(CCN3CCOCC3)[nH]c2c1 (stereo not drawn) [Compound 35, 1-((8-((2-methyl-3-(2-(2-morpholinoethyl)-1H-indol-6-yl)phenyl)amino)-1,7-naphthyridin-3-yl)methyl)piperidine-2-carboxylic acid] | > 0.15 |
| Cc1c(Nc2nccc3cc(CN4CCCCC4C(=O)O)cnc23)cccc1-c1cccc(OCCCN2CCOCC2)c1 (stereo not drawn) [Compound 36, 1-((8-((2-methyl-3′-(3-morpholinopropoxy)-[1,1′-biphenyl]-3-yl)amino)-1,7-naphthyridin-3-yl)methyl)piperidine-2-carboxylic acid] | 0.002 to 0.01 |
| Cc1c(Nc2nccc3cc(CN4CCCCC4C(=O)O)cnc23)cccc1-c1cccc(OCCCN2CCOCC2)c1F (stereo not drawn) [Compound 37, 1-((8-((2′-fluoro-2-methyl-3′-(3-morpholinopropoxy)-[1,1′-biphenyl]-3-yl)amino)-1,7-naphthyridin-3-yl)methyl)piperidine-2-carboxylic acid] | 0.002 to 0.01 |
| Cc1c(Nc2nccc3cc(CN4CCCCC4C(=O)O)cnc23)cccc1-c1cccc(OCCCN2CCOCC2)c1Cl (stereo not drawn) [Compound 38, 1-((8-((2′-chloro-2-methyl-3′-(3-morpholinopropoxy)-[1,1′-biphenyl]-3-yl)amino)-1,7-naphthyridin-3-yl)methyl)piperidine-2-carboxylic acid] | 0.002 to 0.01 |
| Cc1c(Nc2nccc3cc(CN4CCCCC4C(=O)O)cnc23)cccc1-c1cccc(OCCCN2CCOCC2)c1C#N (stereo not drawn) [Compound 39, 1-((8-((2′-cyano-2-methyl-3′-(3-morpholinopropoxy)-[1,1′-biphenyl]-3-yl)amino)-1,7-naphthyridin-3-yl)methyl)piperidine-2-carboxylic acid] | 0.002 to 0.01 |
| Cc1c(Nc2nccc3cc(CN4CCCCC4C(=O)O)cnc23)cccc1-c1ccc(F)c(OCCCN2CCOCC2)c1 (stereo not drawn) [Compound 40, 1-((8-((4′-fluoro-2-methyl-3′-(3-morpholinopropoxy)-[1,1′-biphenyl]-3-yl)amino)-1,7-naphthyridin-3-yl)methyl)piperidine-2-carboxylic acid] | 0.002 to 0.01 |
| Cc1ccc(-c2cccc(Nc3nccc4cc(CN5CCCCC5C(=O)O)cnc34)c2C)c(C)c1OCCCN1CCOCC1 (stereo not drawn) [Compound 41, 1-((8-((2,2′,4′-trimethyl-3′-(3-morpholinopropoxy)-[1,1′-biphenyl]-3-yl)amino)-1,7-naphthyridin-3-yl)methyl)piperidine-2-carboxylic acid] | > 0.15 |
| Cc1ccc(-c2cccc(Nc3nccc4cc(CN5CCCCC5C(=O)O)cnc34)c2C)cc1OCCCN1CCOCC1 (stereo not drawn) [Compound 42, 1-((8-((2,4′-dimethyl-3′-(3-morpholinopropoxy)-[1,1′-biphenyl]-3-yl)amino)-1,7-naphthyridin-3-yl)methyl)piperidine-2-carboxylic acid] | 0.002 to 0.01 |
| Cc1c(Nc2nccc3cc(CN4CCCCC4C(=O)O)cnc23)cccc1-c1ccc(Cl)c(OCCCN2CCOCC2)c1 (stereo not drawn) [Compound 43, 1-((8-((4′-chloro-2-methyl-3′-(3-morpholinopropoxy)-[1,1′-biphenyl]-3-yl)amino)-1,7-naphthyridin-3-yl)methyl)piperidine-2-carboxylic acid] | 0.002 to 0.01 |
| Cc1c(Nc2nccc3cc(CNCC(=O)O)cnc23)cccc1-c1ccc(Cl)c(OCCCN2CCOCC2)c1 [Compound 44, ((8-((4′-chloro-2-methyl-3′-(3-morpholinopropoxy)-[1,1′-biphenyl]-3-yl)amino)-1,7-naphthyridin-3-yl)methyl)glycine] | < 0.002 |
| Cc1c(Nc2nccc3cc(CNCC(=O)O)cnc23)cccc1-c1cccc(OCCCN2CCOCC2)c1Cl [Compound 45, ((8-((2′-chloro-2-methyl-3′-(3-morpholinopropoxy)-[1,1′-biphenyl]-3-yl)amino)-1,7-naphthyridin-3-yl)methyl)glycine] | < 0.002 |
| Cc1c(Nc2nccc3cc(CNCC(=O)O)cnc23)cccc1-c1cncc(OCCCN2CCOCC2)c1C [Compound 46, ((8-((2-methyl-3-(4-methyl-5-(3-morpholinopropoxy)pyridin-3-yl)phenyl)amino)-1,7-naphthyridin-3-yl)methyl)glycine] | 0.01 to 0.15 |
| Cc1c(COCCN2CCOCC2)cccc1-c1cccc(Nc2nccc3cc(CN4CCCCC4C(=O)O)cnc23)c1C (stereo not drawn) [Compound 47, 1-((8-((2,2′-dimethyl-3′-((2-morpholinoethoxy)methyl)-[1,1′-biphenyl]-3-yl)amino)-1,7-naphthyridin-3-yl)methyl)piperidine-2-carboxylic acid] | < 0.002 |
| Cc1c(NCCCN2CCOCC2)cccc1-c1cccc(Nc2nccc3cc(CN4CCCCC4C(=O)O)cnc23)c1C (stereo not drawn) [Compound 48, 1-((8-((2,2′-dimethyl-3′-((3-morpholinopropyl)amino)-[1,1′-biphenyl]-3-yl)amino)-1,7-naphthyridin-3-yl)methyl)piperidine-2-carboxylic acid] | 0.002 to 0.01 |
